Target: T1, androgen receptor (Homo sapiens, UniProt P10275)
T1 sequence (P10275 1-920 Q868H): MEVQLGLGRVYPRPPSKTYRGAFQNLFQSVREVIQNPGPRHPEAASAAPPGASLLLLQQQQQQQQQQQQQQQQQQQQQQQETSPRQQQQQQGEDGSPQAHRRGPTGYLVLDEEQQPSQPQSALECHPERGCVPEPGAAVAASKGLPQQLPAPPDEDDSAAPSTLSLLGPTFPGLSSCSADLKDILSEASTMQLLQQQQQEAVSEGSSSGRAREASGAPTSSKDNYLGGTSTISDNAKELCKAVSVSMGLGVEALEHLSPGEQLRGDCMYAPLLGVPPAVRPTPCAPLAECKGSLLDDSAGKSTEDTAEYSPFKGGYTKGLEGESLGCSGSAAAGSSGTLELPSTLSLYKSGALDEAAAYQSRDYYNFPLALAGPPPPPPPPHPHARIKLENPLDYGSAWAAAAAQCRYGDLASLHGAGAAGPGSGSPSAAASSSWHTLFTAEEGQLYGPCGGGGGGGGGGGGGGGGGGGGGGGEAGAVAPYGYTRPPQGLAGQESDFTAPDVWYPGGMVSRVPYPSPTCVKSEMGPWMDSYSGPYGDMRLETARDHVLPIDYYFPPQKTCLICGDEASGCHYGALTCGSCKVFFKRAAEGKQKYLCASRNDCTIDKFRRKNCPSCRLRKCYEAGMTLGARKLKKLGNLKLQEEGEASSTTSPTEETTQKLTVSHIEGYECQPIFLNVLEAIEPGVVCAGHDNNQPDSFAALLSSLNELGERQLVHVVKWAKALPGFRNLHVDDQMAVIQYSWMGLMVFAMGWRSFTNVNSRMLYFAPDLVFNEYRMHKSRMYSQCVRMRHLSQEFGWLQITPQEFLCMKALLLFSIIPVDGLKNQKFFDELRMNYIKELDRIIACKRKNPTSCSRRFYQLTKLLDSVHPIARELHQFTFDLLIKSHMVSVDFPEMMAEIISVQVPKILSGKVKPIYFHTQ
Experiment: AR Antagonist Cell Assay (MMTV-luciferase reporter, DHT-stimulated)
Type: cell-based
Conditions: MDA-MB453-MMTV clone 54-19 cells; antagonism of 100 pM DHT, 17 hr, luciferase readout
In short: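 MDA-MB453 cells stably carrying MMTV-ARE-firefly luciferase, in 1% charcoal-treated serum, preincubated 30 min with compound (10 uM or 1 uM) then stimulated with 100 pM DHT for 17 h at 37° C. Luminescence read; result as % inhibition of DHT fold induction.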

Row | IC50 | SMILES
1 | > 10 µM | CC(C)N(C)S(=O)(=O)c1ccc(Cc2ccc3[nH]c(=O)cc(C(F)(F)F)c3c2)cc1 [Example 7, N-Isopropyl-N-methyl-4-(2-oxo-4-trifluoromethyl-1,2-dihydroquinolin-6-ylmethyl)benzenesulfonamide]
2 | > 10 µM | COc1cccc(NS(=O)(=O)c2ccc(Cc3ccc4[nH]c(=O)cc(C(F)(F)F)c4c3)cc2)c1 [Example 50, N-(3-Methoxyphenyl)-4-(2-oxo-4-trifluoromethyl-1,2-dihydroquinolin-6-ylmethyl)-benzenesulfonamide]
3 | 5.74 µM | O=c1cc(C(F)(F)F)c2cc(Cc3ccc(S(=O)(=O)NCC(c4ccccc4)c4ccccc4)cc3)ccc2o1 [Example 206, N-(2,2-Diphenylethyl)-4-(2-oxo-4-trifluoromethyl-2H-chromen-6-ylmethyl)benzene-sulfonamide]
4 | 5.93 µM | O=c1cc(C(F)(F)F)c2cc(Cc3ccc(S(=O)(=O)NCc4ccc(F)cc4Cl)cc3)ccc2o1 [Example 198]
5 | 9.9 µM | O=c1cc(C(F)(F)F)c2cc(Cc3ccc(S(=O)(=O)NC4CCN(Cc5ccccc5)CC4)cc3)ccc2[nH]1 [Example 52, N-(1-Benzylpipendin-4-yl)-4-(2-oxo-4-trifluoromethyl-1,2-dihydroquinolin-6-ylmethyl)-benzenesulfonamide]
6 | 2.28 µM | O=c1cc(C(F)(F)F)c2cc(Cc3ccc(S(=O)(=O)NC4CCN(Cc5ccccc5)C4)cc3)ccc2[nH]1 (stereo not shown) [Example 86]
7 | > 10 µM | COCCNS(=O)(=O)c1ccc(Cc2ccc3[nH]c(=O)cc(C(F)(F)F)c3c2)cc1 [Example 53, N-(2-Methoxyethyl)-4-(2-oxo-4-trifluoromethyl-1,2-dihydroquinolin-6-ylmethyl)-benzenesulfonamide]
8 | > 10 µM | CN(C1CCCCC1)S(=O)(=O)c1ccc(Cc2ccc3oc(=O)cc(C(F)(F)F)c3c2)cc1 [Example 106, N-Cyclohexyl-N-methyl-4-(2-oxo-4-trifluoromethyl-2H-chromen-6-ylmethyl)-benzenesulfonamide]
9 | > 10 µM | O=c1cc(C(F)(F)F)c2cc(Cc3ccc(S(=O)(=O)N(Cc4ccccc4)Cc4ccccc4)cc3)ccc2[nH]1 [Example 11, N,N-Dibenzyl-4-(2-oxo-4-trifluoromethyl-1,2-dihydroquinolin-6-ylmethyl)benzenesulfonamide]
10 | > 10 µM | CC(C)CCNS(=O)(=O)c1ccc(Cc2ccc3oc(=O)cc(C(F)(F)F)c3c2)cc1 [Example 159, N-(3-Methylbutyl)-4-(2-oxo-4-trifluoromethyl-2H-chromen-6-ylmethyl)benzenesulfonamide]
11 | 5.77 µM | O=c1cc(C(F)(F)F)c2cc(Cc3ccc(S(=O)(=O)NCC4CCCC[C@H]4O)cc3)ccc2o1 (stereo in doubt) [Example 177, N-(2-Hydroxycyclohexylmethyl)-4-(2-oxo-4-trifluoromethyl-2H-chromen-6-ylmethyl)benzenesulfonamide]
12 | > 10 µM | CC(C)(C)CCNS(=O)(=O)c1ccc(Cc2ccc3[nH]c(=O)cc(C(F)(F)F)c3c2)cc1 [Example 54, N-(3,3-Dimethylbutyl)-4-(2-oxo-4-trifluoromethyl-1,2-dihydroquinolin-6-ylmethyl)-benzenesulfonamide]
13 | 6.23 µM | CCCCN(CCCC)S(=O)(=O)c1ccc(Cc2ccc3oc(=O)cc(C(F)(F)F)c3c2)cc1 [Example 97, N,N-Dibutyl-4-(2-oxo-4-trifluoromethyl-2H-chromen-6-ylmethyl)benzenesulfonamide]
14 | 3.08 µM | O=c1cc(C(F)(F)F)c2cc(Cc3ccc(S(=O)(=O)NCc4cccnc4)cc3)ccc2o1 [Example 163, 4-(2-Oxo-4-trifluoromethyl-2H-chromen-6-ylmethyl)-N-pyridin-3-ylmethylbenzenesulfonamide]
15 | 8.5 µM | O=c1cc(C(F)(F)F)c2cc(Cc3ccc(S(=O)(=O)NCCC4=CCCCC4)cc3)ccc2o1 [Example 175, N-(2-Cyclohex-1-enylethyl)-4-(2-oxo-4-trifluoromethyl-2H-chromen-6-ylmethyl)benzenesulfonamide]
16 | 2.65 µM | CC(C)N(C)S(=O)(=O)c1ccc(Cc2ccc3oc(=O)cc(C(F)(F)F)c3c2)cc1 [Example 101, N-Isopropyl-N-methyl-4-(2-oxo-4-trifluoromethyl-2H-chromen-6-ylmethyl)-benzenesulfonamide]
17 | 2.51 µM | O=c1cc(C(F)(F)F)c2cc(Cc3ccc(S(=O)(=O)NCc4ccc5c(c4)CCO5)cc3)ccc2o1 [Example 189, N-(2,3-Dihydrobenzofuran-5-ylmethyl)-4-(2-oxo-4-trifluoromethyl-2H-chromen-6-ylmethyl)benzenesulfonamide]
18 | 1.24 µM | CSc1cccc(NS(=O)(=O)c2ccc(Cc3ccc4oc(=O)cc(C(F)(F)F)c4c3)cc2)c1 [Example 134, N-(3-Methylsulfanylphenyl)-4-(2-oxo-4-trifluoromethyl-2H-chromen-6-ylmethyl)-benzenesulfonamide]
19 | 1.91 µM | O=c1cc(C(F)(F)F)c2cc(Cc3ccc(S(=O)(=O)NCc4c(F)cccc4F)cc3)ccc2o1 [Example 188, N-(2,6-Difluorobenzyl)-4-(2-oxo-4-trifluoromethyl-2H-chromen-6-ylmethyl)benzenesulfonamide]
20 | 2.77 µM | O=c1cc(C(F)(F)F)c2cc(Cc3ccc(S(=O)(=O)Nc4ccc5c(c4)CCC5)cc3)ccc2o1 [Example 127, N-Indan-5-yl-4-(2-oxo-4-trifluoromethyl-2H-chromen-6-ylmethyl)benzenesulfonamide]
21 | 2.06 µM | CC(CNS(=O)(=O)c1ccc(Cc2ccc3oc(=O)cc(C(F)(F)F)c3c2)cc1)c1ccccc1 (stereo not shown) [Example 180, 4-(2-Oxo-4-trifluoromethyl-2H-chromen-6-ylmethyl)-N-(2-phenylpropyl)-benzenesulfonamide]
22 | > 10 µM | O=c1cc(C(F)(F)F)c2cc(Cc3ccc(S(=O)(=O)Nc4ccc5ncccc5c4)cc3)ccc2o1 [Example 125, 4-(2-Oxo-4-trifluoromethyl-2H-chromen-6-ylmethyl)-N-quinolin-6-ylbenzenesulfonamide]
23 | > 10 µM | CN(CCc1ccccc1)S(=O)(=O)c1ccc(Cc2ccc3oc(=O)cc(C(F)(F)F)c3c2)cc1 [Example 112, N-Methyl-4-(2-oxo-4-trifluoromethyl-2H-chromen-6-ylmethyl)-N-phenethyl-benzenesulfonamide]
24 | 4.06 µM | Cc1ccc(F)cc1CNS(=O)(=O)c1ccc(Cc2ccc3oc(=O)cc(C(F)(F)F)c3c2)cc1 [Example 185, N-(5-Fluoro-2-methylbenzyl)-4-(2-oxo-4-trifluoromethyl-2H-chromen-6-ylmethyl)-benzenesulfonamide]
25 | 3.44 µM | O=C1CCCN1CCCNS(=O)(=O)c1ccc(Cc2ccc3oc(=O)cc(C(F)(F)F)c3c2)cc1 [Example 187, N-[3-(2-Oxopyrrolidin-1-yl)propyl]-4-(2-oxo-4-trifluoromethyl-2H-chromen-6-ylmethyl)benzenesulfonamide]
26 | 9.09 µM | CC(=O)c1cccc(NS(=O)(=O)c2ccc(Cc3ccc4[nH]c(=O)cc(C(F)(F)F)c4c3)cc2)c1 [Example 21, N-(3-Acetylphenyl)-4-(2-oxo-4-trifluoromethyl-1,2-dihydroquinolin-6-ylmethyl)benzenesulfonamide]
27 | 8 µM | CSc1ccccc1CNS(=O)(=O)c1ccc(Cc2ccc3oc(=O)cc(C(F)(F)F)c3c2)cc1 [Example 194, N-(2-Methylsulfanylbenzyl)-4-(2-oxo-4-trifluoromethyl-2H-chromen-6-ylmethyl)benzenesulfonamide]
28 | > 10 µM | O=c1cc(C(F)(F)F)c2cc(Cc3ccc(S(=O)(=O)NCCc4ccc(Cl)cc4)cc3)ccc2[nH]1 [Example 74, N-[2-(4-Chlorophenyl)ethyl]-4-(2-oxo-4-trifluoromethyl-1,2-dihydroquinolin-6-ylmethyl)-benzenesulfonamide]
29 | > 10 µM | O=c1cc(C(F)(F)F)c2cc(Cc3ccc(S(=O)(=O)NC(CCO)c4ccccc4)cc3)ccc2[nH]1 (stereo not shown) [Example 72, N-(3-Hydroxy-1-phenylpropyl)-4-(2-oxo-4-trifluoromethyl-1,2-dihydroquinolin-6-ylmethyl)-benzenesulfonamide]
30 | > 10 µM | COCCN(CCOC)S(=O)(=O)c1ccc(Cc2ccc3[nH]c(=O)cc(C(F)(F)F)c3c2)cc1 [Example 12, N,N-Bis(2-methoxyethyl)-4-(2-oxo-4-trifluoromethyl-1,2-dihydroquinolin-6-ylmethyl)benzenesulfonamide]

Row | SMILES | IC50
31 | Cc1cccc(CNS(=O)(=O)c2ccc(Cc3ccc4[nH]c(=O)cc(C(F)(F)F)c4c3)cc2)c1 [Example 58, N-(3-Methylbenzyl)-4-(2-oxo-4-trifluoromethyl-1,2-dihydroquinolin-6-ylmethyl)-benzenesulfonamide] | > 10 µM

Reference: patent publication US7098340B2, “Benzyl sulfonamide derivatives” (Warner Lambert Company LLC, priority 2003, dated 2006)
